Measurements: patent US9023405B2, “Pharmaceutical composition using stryphnodendron extracts for treating HPV infections” (priority 2010, dated 2015)

Legend:
[1] = tested on: human papillomavirus (HPV) lesions; details: cited from earlier work; for rate of local relapses: direct application on moles
[2] = tested on: skin incisions; experiment: healing tests (skin incisions); type: in vivo, albino rabbits of the New Zealand lineage; details: daily topical treatment of incisions
From the text: Thirty-six healthy adult albino rabbits of the New Zealand lineage weighing between 1.250 and 1.700 Kg were used for the healing tests. The animals were shaved and housed in individual cages at room temperature, in 12-hour light-dark cycles, with PURINA animal food and water ad libitum. The rabbits were anesthetized with local administration of lidocaine hydrochloride and inhalation of sulfuric ether. Four incisions were made on the skin of each rabbit until the subcutaneous layer was reached. A distance of 3 cm was maintained between each incision. The animals were divided into three groups. The group A, control, received NaCl 0.9% solution during the 14 days of treatment period. Group B was treated with rifamycin and group C received the ethanolic extract of barbatiman barks, resuspended in water (0.1 g mL^−1). The incisions remained open, and the rabbits were treated from the first day of the incision until the 14th day after the incision was made. On the 7th day, pieces were removed from ⅓ of the rabbits and part of the liver for histological analysis, and the animals were then killed. On 14th day, the remaining rabbits were killed, and the pieces and part of the liver were removed for histological analysis. […]

## CC(C)Cn1cnc2c(N)nc3ccccc3c21 [Imiquimod]
[1]; condyloma acuminata of external and perianal genitalia
  cure rate: 50-56%
[1]; in vivo
  patients with headache, myalgia, and flu-like symptoms: less than 5%

## O=C(O)C(Cl)Cl [dichloroacetic acid, dichloroacetic]
[1]
  rate of local relapses: around 30%

## CO[C@H]1/C=C/O[C@@]2(C)Oc3c(C)c(O)c4c(O)c(cc(O)c4c3C2=O)NC(=O)/C(C)=C\C=C\[C@H](C)[C@H](O)[C@@H](C)[C@@H](O)[C@@H](C)[C@H](OC(C)=O)[C@@H]1C [rifamycin]
[2]
  purulent secretion: present purulent secretion

## O=C(O)C(Cl)(Cl)Cl [trichloroacetic acid, trichloroacetic acids]
[1]
  rate of local relapses: around 30%
